Experimental data taken from patent US10092582B2, “Cell mobilization agent containing lysophospholipid with retinoic acid introduced” (NOF CORPORATION, priority 2014, dated 2018).

Assays:
[1] = system: human acute monocytic leukaemia cell line (THP-1); assay: Monocyte mobilization effect: THP-1 cell migration rate in Transwell; assay type: cell-based; conditions: 3 hr; for cell migration rate (monocyte mobilization effect) compared to the control: 10 nM, FIG. 1, Ret-LysoPC of Example 1-2, Ret-PC of Comparative Example 1
Protocol: A cell suspension of human acute monocytic leukaemia cell line (hereinafter to be referred to as “THP-1”) (manufactured by ATCC) was centrifuged, the supernatant was discarded, 0.1% bovine serum albumin (fatty acid-free, manufactured by SIGMA ALDRICH)-containing RPMI-1640 (manufactured by Life Technologies) was added to give a dispersion. It was centrifuged again, the supernatant was discarded to give cell pellets. 0.1% Bovine serum albumin-containing RPMI-1640 was added to adjust the cell density to 1×10^6 cells/ml. The cell suspension (100 μl/well) was added to Transwell (manufactured by Corning Incorporated, φ6.5 mm, pore size φ8.0 μm). The cells were incubated at 37° C., 5% CO2 for 30 min, and a measurement solution (all-trans retinoic acid (manufactured by Tokyo Chemical Industry Co., Ltd.) (hereinafter to be referred to as “RA”), Ret-PC of Comparative Example 1 or Ret-LysoPC of Example 1-2 dissolved in 0.1% bovine serum albumin-containing RPMI-1640 to 10 nM, and 0.1% bovine serum albumin-containing RPMI-1640 alone) was placed in the lower part of the multiple well plate (600 μl/well). After incubation at 37° C., 5% CO2 for 3 hr, the cell suspension in the multiple well plate was collected, cell density was measured by a hemacytometer and the cell migration rate was determined. The cell migration rate was defined as follows. cell migration rate (%)=(number of cells in multiple well plate)/(number of cells added to Transwell)
A cell suspension of THP-1 was centrifuged, the supernatant was discarded, 0.1% bovine serum-containing RPMI-1640 was added to give a dispersion. It was centrifuged again, the supernatant was discarded to give cell pellets. 0.1% Bovine serum albumin-containing RPMI-1640 was added to adjust the cell density to 1×10^6 cells/ml. The cell suspension (100 μl/well) was added to Transwell (manufactured by Corning Incorporated, φ6.5 mm, pore size φ8.0 μm). The cells were incubated at 37° C., 5% CO2 for 30 min, and a measurement solution (Ret-LysoPC of Examples 1-1 and 1-2 dissolved in 0.1% bovine serum albumin-containing RPMI-1640 to 10 nM, and 0.1% bovine serum albumin-containing RPMI-1640 alone) was placed in the lower part of the multiple well plate (600 μl/well). After incubation at 37° C., 5% CO2 for 3 hr, the cell suspension in the multiple well plate was collected, cell density was measured by a hemacytometer and the cell migration rate was determined.
Using human acute monocytic leukaemia cell line (THP-1) (manufactured by ATCC), a monocyte migration effect of each sample was evaluated. A cell suspension of THP-1 was centrifuged, the supernatant was discarded, 0.1% bovine serum-containing RPMI-1640 was added to give a dispersion. It was centrifuged again, the supernatant was discarded to give cell pellets. 0.1% Bovine serum albumin-containing RPMI-1640 was added to adjust the cell density to 1×10^6 cells/ml. The cell suspension (100 μl/well) was added to Transwell (manufactured by Corning Incorporated, φ6.5 mm, pore size φ8.0 μm). The cells were incubated at 37° C., 5% CO2 for 30 min, and a measurement solution (C18:0-LysoPC (COATSOME MC-80H; manufactured by NOF CORPORATION), Ret-LysoPC of Example 2 or S1P (manufactured by Toronto Research Chemicals) dissolved in 0.1% bovine serum albumin-containing RPMI-1640, and 0.1% bovine serum albumin-containing RPMI-1640 alone) was placed in the lower part of the multiple well plate ([…]). After incubation at 37° C., 5% CO2 for 3 hr, the cell suspension in the multiple well plate was collected, cell density was measured by a hemacytometer and the cell migration rate was determined.

[2] = system: monocytes and macrophages; conditions: background art, non-patent documents 2, 3; cited from earlier work
[3] = system: Human bone marrow-derived mesenchymal stem cell line (UE7T-13); assay: Mesenchymal stem cell mobilization effect: UE7T-13 cell migration ratio in Transwell; assay type: cell-based; conditions: 4 hr
Protocol: Human bone marrow-derived mesenchymal stem cell line (UE7T-13) (manufactured by National Institute of Biomedical Innovation JCRB Cell Bank) was previously cultured in serum-free DMEM (manufactured by SIGMA ALDRICH) for 24 hr, and 0.25% trypsin/1 mM EDTA solution (manufactured by SIGMA ALDRICH) was added to give a dispersion. 10% Serum-containing DMEM (Powered by 10 medium; manufactured by GlycoTechnica Ltd.) was added, the cell suspension was centrifuged, the supernatant was discarded, 0.1% bovine serum albumin (fatty acid-free, manufactured by SIGMA ALDRICH)-containing DMEM (manufactured by SIGMA ALDRICH) was added to give a dispersion. It was centrifuged again, the supernatant was discarded to give cell pellets. 0.1% Bovine serum albumin-containing DMEM was added to adjust the cell density to 4×10^5 cells/mi. The cell suspension (100 μl/well) was added to Transwell (manufactured by Corning Incorporated, φ6.5 mm, pore size φ8.0 μm). The cells were incubated at 37° C., 5% CO2 for 30 min, and a measurement solution (Ret-LysoPC of Example 1-2 dissolved in 0.1% bovine serum albumin-containing DMEM to 10 nM, or 0.1% bovine serum albumin-containing DMEM alone) was placed in the lower part of the multiple well plate (600 μl/well). After incubation at 37° C., 5% CO2 for 4 hr, the supernatant in the insert was removed. The cells on the upper membrane side were removed, the cells on the lower membrane side were immobilized with 4% para-formaldehyde solution, and stained with crystalviolet solution. They were washed with water, dried, and the number of cells per one field was measured by microscopic observation. The cell migration ratio was defined as follows. cell migration ratio=(number of cell per one membrane field when each measurement solution was used)/(number of cells per one membrane field of control)
The control refers to 0.1% bovine serum albumin-containing DMEM with no addition.
Human bone marrow-derived mesenchymal stem cell line (UE7T-13) (manufactured by National Institute of Biomedical Innovation JCRB Cell Bank) was previously cultured in serum-free DMEM (manufactured by SIGMA ALDRICH) for 24 hr, and 0.25% trypsin/1 mM EDTA solution (manufactured by SIGMA ALDRICH) was added to give a dispersion. 10% Serum-containing DMEM (Powered by 10 medium; manufactured by GlycoTechnica Ltd.) was added, the cell suspension was centrifuged, the supernatant was discarded, 0.1% bovine serum albumin (fatty acid-free, manufactured by SIGMA ALDRICH)-containing DMEM (manufactured by SIGMA ALDRICH) was added to give a dispersion. It was centrifuged again, the supernatant was discarded to give cell pellets. […] They were washed with water, dried, and the number of cells per one field was measured by microscopic observation. […]

[4] = 100 nM, FIG. 6, FIG. 7, Ret-LysoPC of Example 2

## CCCCCCCCCCCCCCCCCC(=O)OC[C@@H](O)COP(=O)([O-])OCC[N+](C)(C)C [C18:0-LysoPC, 1-stearoyl-lysophosphocholine]
[1]; [4]
  monocyte mobilization effect (cell migration rate): absent
[2]
  concentration at which a monocyte/macrophage mobilizing effect is exhibited: ≥ 10 µM

## CCCCCCCCCCCCC/C=C/[C@@H](O)[C@@H](N)COP(=O)(O)O [Example S1P, sphingosine-1-phosphoric acid]
[1]; 1 nM, FIG. 7
  monocyte mobilization effect (cell migration rate): did not show a significant (p<0.05) monocyte mobilization effect
[1]; [4]
  monocyte mobilization effect (cell migration rate): did not show a significant (p<0.05) monocyte mobilization effect
[2]
  concentration at which mobilization of monocytes and macrophages is suppressed (acting on receptor 2): ≥ 100 nM
  effective concentration range for mobilization of monocytes and macrophages: around 10 nM
[3]; 10 nM, FIG. 8
  mesenchymal stem cell mobilization effect (cell migration ratio): did not show a significant (p<0.05) mesenchymal stem cell mobilization effect
[3]; 100 nM, FIG. 8
  mesenchymal stem cell mobilization effect (cell migration ratio): did not show a significant (p<0.05) mesenchymal stem cell mobilization effect

## CC1=C(/C=C/C(C)=C/C=C/C(C)=C/C(=O)O)C(C)(C)CCC1 [RA, all-trans retinoic acid]
[1]
  cell migration rate (monocyte mobilization effect) compared to the control: did not show cell migration

## CC1=C(/C=C/C(C)=C/C=C/C(C)=C/C(=O)OCC(O)COP(=O)([O-])OCC[N+](C)(C)C)C(C)(C)CCC1 (stereo not drawn) [Ret-LysoPC, 1-retinoyl-sn-glycero-3-phosphocholine]
[1]
  cell migration rate (monocyte mobilization effect) compared to the control: significant (P<0.05) cell migration
[1]; [4]
  monocyte mobilization effect (cell migration rate): present
[1]; any of 1-100 nM, FIG. 7, Ret-LysoPC of Example 2
  monocyte mobilization effect (cell migration rate): showed a significant monocyte mobilization effect
[3]; 10 nM, FIG. 3, Ret-LysoPC of Example 1-2
  cell migration ratio (mesenchymal stem cell mobilization effect) compared to the control: significant cell migration
[3]; any of 1-100 nM, FIG. 8, Ret-LysoPC of Example 1-2
  mesenchymal stem cell mobilization effect (cell migration ratio): showed a significant mesenchymal stem cell mobilization effect

## CC1=C(/C=C/C(C)=C/C=C/C(C)=C/C(=O)OCC(COP(=O)([O-])OCC[N+](C)(C)C)OC(=O)/C=C(C)/C=C/C=C(C)/C=C/C2=C(C)CCCC2(C)C)C(C)(C)CCC1 (stereo not drawn) [Ret-PC, diretinoyl phosphocholine]
[1]
  cell migration rate (monocyte mobilization effect) compared to the control: did not show cell migration
